Results taken from patent US20060040884A1, “Antisense oligonucleotides directed to genes regulated by trapoxin-induced HDAC inhibition” (priority 2001, published 2006).
Where “and” joins values, the source holds several entries; their conditions need not be identical. Equal values may be shown once. Marks after values point to notes of the source that are not given here. Square brackets hold non-standard residues; d marks the D form. Peptide text beside a SMILES is read from it. ξ: configuration not given here. Aoe(9ξ) = N[C@@H](CCCCCC(=O)C1CO1)C(=O)O; dPip = O=C(O)[C@H]1CCCCN1

Tested on: H1299 cells
Assay: Microarray expression profiling of TPX- vs DMSO-treated H1299 cells (Affymetrix HU6800 and Incyte UniGem V arrays)
Assay type: cell-based, human
Conditions: 30 nM vs DMSO
Experimental: Cell Culture and Drug Treatments. […] H1299 cells at 60 to 80% confluence are treated with 30 nM TPX dissolved in dimethyl sulphoxide for a final concentration of 0.1% Me2SO in cell culture medium or 0.1% Me2SO for 0, 6, 12, and 18 h.
Incyte cDNA arrays. H1299 cells are treated with 30 nM TPX dissolved in Me2SO or Me2SO for 0, 6, 12 and 18 h. Final Me2SO concentrations were 0.1% in cell culture medium. Total RNA is extracted using TRIZOL reagent (Life Technologies, Rockville, Md.) and purified using RNAeasy reagents (Qiagen, Valencia Calif.). Poly (A)^+ RNA (mRNA) is prepared from total RNA using Oligotex columns (Qiagen, Valencia, Calif.) and the procedure is repeated twice to minimize contamination with ribosomal RNA. The mRNA concentrations are determined using RiboGreen RNA Quantitation kit (Molecular Probes, Eugene, Oreg.) and equal amounts of mRNA from each sample is used in labeling reactions that are performed by Synteni Division of Incyte Genomics, Inc. (Palo Alto, Calif.). Complementary DNAs are prepared by […] and labeled with Cy3-deoxyuridine triphosphate (Cy3) or Cy5-deoxyuridine triphosphate (Cy5) fluorescent nucleotides. cDNA samples from cells that are treated with Me2SO are labeled with Cy3 and the TPX-treated samples are labeled with Cy5. Replicates were labeled with reversed fluorescent labels to accommodate biases attributable to labeling. The Cy3 and Cy5 samples from each time point are combined and hybridized to UniGem […] arrays (Iyer, V. R., et al., (1999) Science 283, 83-87). This array contains cDNAs that represent approximately 7000 human genes.
Affymetrix oligonucleotide arrays. Total RNA and Poly (A)^+ RNA is isolated from TPX or Me2SO-treated H1299 cells essentially as it was for Incyte cDNA arrays. Total RNA is isolated from p21^waf1-10 cells that are grown in the presence or in the absence of tetracycline for 6, 12 and 48 h. 1st strand cDNA synthesis is performed using Superscript Choice System (Life Technologies) and a T7prFB-t30 primer, 5′-AAACGACGGCACA […]-t30-3′ (SEQ ID NO 1). Biotinylated complementary […] is made using the T7 Megascript system (Ambion, Austin, Tex.), substituting NTP labeling-mix containing biotinylated CTP and UTP. The labeled, purified cDNA is fragmented into <50 bp pieces at 95° C. in MgCl2 buffer to-increase the efficiency of hybridization to 20-mer oligos on the arrays. These labeled fragments are hybridized to HU6800 arrays (Affymetrix, Santa Clara, Calif.) as described previously (Lockhart, D. J., et al., (1996) Nat. Biotechnol. 14, 1675-1680; Alon, U. et al., (1999) Proc. Natl. Acad. Sci. U.S.A. 96, 6745-6750). This array represents approximately 7000 human genes. Briefly, samples are hybridized for 16 h at 45° C. with constant rotation at 60 rpm. The arrays are washed and stained using an Affymetrix fluidics station. The stain included streptavidin-phycoerythrin (10 μg/ml; Molecular Probes, Eugene, Oreg.) and biotinylated goat anti-streptavidin (3 μg/ml; Vector Laboratories, Burlingame, Calif.).
Imaging and Data Analysis. Affymetrix arrays are scanned with a HP argon-ion laser confocal microscope, with a 488 nm […] and detection at 570 nm. Affymetrix fold changes are calculated using GeneChip 3.3 software (Affymetrix). Incyte Pharmaceutical Inc. uses a laser confocal microscope to determine the fluorescence intensities from Incyte cDNA arrays. The fluorescent images (Cy3 and Cy5) from the Incyte cDNA arrays are normalized to total fluorescence from each channel for all genes for labeling efficiency differences and considered the normalized data is used for calculation of the gene expression ratios.

O=C(CCCCC[C@@H]1NC(=O)[C@H]2CCCCN2C(=O)[C@H](Cc2ccccc2)NC(=O)[C@H](Cc2ccccc2)NC1=O)C1CO1 (stereo partly drawn) [TPX, Trapoxin A] (cyclo(FF[dPip][Aoe(9ξ)]))
Fold change, D85429 Hsp 40 (12 h): 4.8^8 fold and 5.3^8 fold
Fold change, J03909 γ-IFN-inducible, IP-30 (12 h): 4.7^7 fold and 5.2^8 fold
Fold change, L03840 Fibroblast growth factor receptor (12 h): 3.2* fold and 4.9^1 fold
Fold change, L32976 Mixed lineage kinase-3 (12 h): −2.4* fold
Fold change, M12174 RhoB (12 h): 5.2^8 fold and 4.5^8 fold
Fold change, M16938 Homeobox C8 (12 h): NC (<2 fold change in expression level (NC))
Fold change, M55153 Transglutaminase 2 (12 h): NC (<2 fold change in expression level (NC))
Fold change, M59828 Hsp 70 (12 h): NC (<2 fold change in expression level (NC))
Fold change, M76125 Tyrosine kinase receptor (TKR) axl (12 h): NC (<2 fold change in expression level (NC))
Fold change, M80244 Human E16 (12 h): NC (<2 fold change in expression level (NC))
Fold change, M86406 Actinin (12 h): 2.1 fold and 2.4 fold
Fold change, NM006603 Stromal antigen 2 (12 h): NC (<2 fold change in expression level (NC))
Fold change, U03057 Actin-bundling protein (12 h): 2.4^7 fold and 2.0^7 fold
Fold change, U09578 MAKAP kinase (3 pk) (12 h): NC (<2 fold change in expression level (NC))
Fold change, U09579 p21waf1 (1st line) (12 h): 10.5^8 fold and 7.0^8 fold
Fold change, U09579 p21waf1 (2nd line) (12 h): 3.4 fold and 3.6 fold
Fold change, U09937 Upa receptor (UpaR) (1st line) (12 h): NC (<2 fold change in expression level (NC))
Fold change, U14750 Connective tissue growth factor (12 h): 5.6 fold and 3.5 fold
Fold change, U15782 Cleavage stimulation factor 3 (12 h): NC (<2 fold change in expression level (NC))
Fold change, U25804 Caspase-4 (12 h): NC (<2 fold change in expression level (NC))
Fold change, U30827 Srp40 (12 h): NC (<2 fold change in expression level (NC))
Fold change, U31875 Hep27 (12 h): 11.2^8 fold and 12.3^8 fold
Fold change, U32519 GAP SH3 binding protein (12 h): 8.3^8 fold and 4.3^3 fold
Fold change, U48795 Cathelicidin antimicrobial peptide (12 h): 8.5 fold
Fold change, U56833 VBP-1 (12 h): NC (<2 fold change in expression level (NC))
Fold change, U77413 O-linked-N-acetylglucosamine transferase (12 h): NC (<2 fold change in expression level (NC))
Fold change, U84214 Defender against cell death 1 (12 h): 2.5 fold and 2.0 fold
Fold change, X03473 Histone H1 (0) [Chromatin remodeling] (12 h): 12.0^8 fold and 11.9^8 fold
Fold change, X03473 Histone H1 (0) [Differentiation] (12 h): 12.0^8 fold and 11.9^8 fold
Fold change, X04429 Plasminogen activator inhibitor 1 (12 h): NC (<2 fold change in expression level (NC))
Fold change, X16396 NAD-dependent methylene teterahydrofolate dehydrogenase-methylenyltetrahydrofolate cyclohydrolase (12 h): NC (<2 fold change in expression level (NC))
Fold change, X37547 Inhibitor of apoptisis homolog C (12 h): NC (<2 fold change in expression level (NC))
Fold change, X53586 Integrin α-6 (12 h): NC (<2 fold change in expression level (NC))
Fold change, X55740 5′-nucleotidase (12 h): NC (<2 fold change in expression level (NC))
Fold change, X66029 TKR axl (12 h): NC (<2 fold change in expression level (NC))
Fold change, X78687 G9 sialidase (12 h): 4.3^8 fold and 4.5^8 fold
Fold change, A1581499 Apoptosis inhibitor 2 (18 h): NC (<2 fold change in expression level (NC))
Fold change, AB011146 KIAA0574, similar to an RNA binding protein (18 h): NC (<2 fold change in expression level (NC))
Fold change, AF012086 RAN-binding protein 2-like (18 h): NC (<2 fold change in expression level (NC))
Fold change, AF052578 RAN [Small GTP-ases] (18 h): 2.5 fold and 3.3 fold
Fold change, AF109161 p35srj [Stress] (18 h): 3.4 fold and 3.3 fold
Fold change, AF109161 p35srj [Transformation and TKRs] (18 h): 3.4 fold and 3.3 fold
Fold change, AL047358 Insulin-induced gene 1 (18 h): 2.0 fold and 2.9 fold
Fold change, AL047358 Spermidine/spermine N1-acetyltransferase (18 h): 2.3 fold and 3.4 fold
Fold change, D31764 Eph1B-like tyrosine kinase receptor (18 h): NC (<2 fold change in expression level (NC))
Fold change, D50525 TI-227H (18 h): NC (<2 fold change in expression level (NC))
Fold change, D85429 Hsp 40 (18 h): 17.1^8 fold and 15.6^8 fold
Fold change, J03909 γ-IFN-inducible, IP-30 (18 h): 17.1^8 fold and 15.6^8 fold
Fold change, L03840 Fibroblast growth factor receptor (18 h): 3.7 fold and 4.4 fold
Fold change, M12174 RhoB (18 h): 6.2^8 fold and 6.1^8 fold
Fold change, M55153 Transglutaminase 2 (18 h): 2.1 fold and 2.6 fold
Fold change, M58286 TNF Receptor (18 h): NC (<2 fold change in expression level (NC))
Fold change, M59828 Hsp 70 (18 h): NC (<2 fold change in expression level (NC))
Fold change, M80899 AHNAK nucleoprotein/desmoykin (18 h): NC (<2 fold change in expression level (NC))
Fold change, M86406 Actinin (18 h): NC (<2 fold change in expression level (NC))
Fold change, U03057 Actin-bundling protein (18 h): NC (<2 fold change in expression level (NC))
Fold change, U09579 p21waf1 (1st line) (18 h): 3.8* fold and 4.0* fold
Fold change, U09579 p21waf1 (2nd line) (18 h): 2.7 fold and 3.1 fold
Fold change, U14750 Connective tissue growth factor (18 h): 3.6 fold and 4.5 fold
Fold change, U19261 Epstein-Barr-induced LMP1 (18 h): NC (<2 fold change in expression level (NC))
Fold change, U28749 High mobility group phosphoprotein I-C (HMGI-C) (1st line) (18 h): NC (<2 fold change in expression level (NC))
Fold change, U30827 Srp40 (18 h): NC (<2 fold change in expression level (NC))
Fold change, U31875 Hep27 (18 h): 7.1^8 fold and 8.3^8 fold
Fold change, U32519 GAP SH3 binding protein (18 h): 4.6^8 fold and 4.2^8 fold
Fold change, U48795 Cathelicidin antimicrobial peptide (18 h): NC (<2 fold change in expression level (NC))
Fold change, U68019 hMAD3 (18 h): NC (<2 fold change in expression level (NC))
Fold change, U79285 Clone 23828 (18 h): NC (<2 fold change in expression level (NC))
Fold change, U84214 Defender against cell death 1 (18 h): NC (<2 fold change in expression level (NC))
Fold change, X03473 Histone H1 (0) [Chromatin remodeling] (18 h): 3.4* fold and 3.6* fold
Fold change, X03473 Histone H1 (0) [Differentiation] (18 h): 3.4* fold and 3.6* fold
Fold change, X37546 Inhibitor of apoptisis homolog B (18 h): NC (<2 fold change in expression level (NC))
Fold change, X78687 G9 sialidase (18 h): 3.3^8 fold and 2.6^8 fold
